Bridges are numbered along the chain shown (N, C = ends). Where no end group is shown, it is not given here.

The values below come from publication PMC4167557 (Nanomedicine (London, England), 2014).

One data set deals with CLL1-expressing cells. The following applies: therapeutic concentration of approximately 4 µM ref 8; cited from earlier work.
Data set [1] is described as follows: Pharmacokinetics in mice after single intravenous injection. Type of data set: in vivo, BALB/c mice.
Data set [2] concerns Caspase 3/7 in heart tissues. The data set can be described thus: Caspase-Glo 3/7 assay in heart tissue. The following applies: 25 mg/kg, 5 days after treatment. Type of data set: in vivo.
Data set [3] deals with plasma creatine kinase MB isoenzyme. The experiment in a line: Plasma CK-MB ELISA. The following applies: mice, single dose DNR 15 mg/kg. Type of data set: in vivo.
A short description of data set [4]: Pharmacokinetics in rats after single intravenous injection. The class given is in vivo, Sprague–Dawley rats.
In data set [5] the test system is vital organs (heart, liver, spleen, lung, kidney). The data set can be described thus: Histological analysis of organ toxicity. The class given is in vivo. The following applies: mice, 5 days after treatment.
For data set [6], the system named is plasma cardiac troponin T (cTnT). The data set can be described thus: Plasma cardiac troponin T ELISA. The following applies: single dose DNR 15 mg/kg. Type of data set: in vivo. On the technique in general: An ELISA detects its analyte on a solid surface through an enzyme-linked reagent.
Another data set relates to K562-CLL1 xenograft. The data set can be described thus: Efficacy in mice bearing K562-CLL1 xenograft. Type of data set: in vivo, nude mice. The following applies: 10 mg/kg every 3 days.
Setting [7] is: BALB/c, mouse, plasma, iv, 10 mg/kg.
The mark [8] stands for this setting: mice, 10 mg/kg DNR iv, mean ± SD.
Where [9] appears, read: Sprague-Dawley, rat, plasma, iv, 5 mg/kg.
Setting [10] is: rats, 5 mg/kg DNR iv, mean ± SD.

As to “CLL1-targeting ligand: CLL1-targeting peptide (amino acid sequence: CDLRSAAVC), cyclized via disulfide (disulfide 1-9 (inferred))”, the “increase of micelle-mediated drug delivery to CLL1-expressing cells” value with CLL1-expressing cells is “approximately threefold”.

The AUC(0-t) is the area under the concentration-time curve up to a stated or last time point. As usually defined, the Cmax is the maximum level reached in the sampled fluid or tissue. A word on the MRT: it is a mean duration of stay, worked out from the concentration-time curve. In general, Vd refers to a proportionality between amount in the body and measured concentration, not a real space. A lower Vd goes with confinement near the circulation. By clearance is commonly meant the rate of elimination divided by the concentration. The term half-life denotes how long it takes for the measured level to halve. In data set [1] (setting [7]), `COc1cccc2c1C(=O)c1c(O)c3c(c(O)c1C2=O)C[C@@](O)(C(C)=O)C[C@@H]3O[C@H]1C[C@H](N)[C@H](O)[C@H](C)O1` [Free DNR, daunorubicin] gave an AUC(0-t) of 836 ± 151 µg·h/mL, a Cmax of 961000 ± 92000 ng/mL, an MRT of 16.7 h and a Vd of 0.205 ± 0.048 L/kg. In data set [1] (setting [7]), the clearance is 0.2 ± 0.03 mL/min/kg and the concentration at 24 h was found to be 13600 ± 1920 ng/mL. The compound also gave a half-life in data set [1] (BALB/c, mouse, plasma, iv, 10 mg/kg, T 1/2β, mice, 10 mg/kg DNR iv) of 11.9 ± 1 h. Moreover, in data set [1] (mice, 10 mg/kg DNR iv, initial half-life in plasma), the “T 1/2α” value worked out at 1.11 ± 0.04 min. Besides, in data set [1] (setting [8]), the Kel is 3.68 ± 6.35, the α was 0.63 ± 0.02 min⁻¹ and the β is 0.0001 min⁻¹. In addition, the “caspase 3/7 activity in cardiac tissue relative to control mice treated with PBS” value in data set [2] is “about 3.46 times”. Also, the “plasma CK-MB level” value in data set [3] (3 h after dosing) worked out at 60.02 ± 4.05 U/l. Further, the “plasma CK-MB level” value in data set [3] (5 days of follow-up) was determined as 113.98 ± 10.42 U/l. For the same compound, in data set [4] (setting [9]), the AUC(0-t) was found to be 3.6 ± 0.79 µg·h/mL, the Cmax was found to be 1910 ± 260 ng/mL, the MRT amounted to 36.2 ± 6.51 h and the distribution volume (Vd) was found to be 50.8 L/kg. For the same compound, in data set [4] (setting [9]), the clearance turned out to be 23.7 ± 5.2 mL/min/kg. The compound also gave a half-life in data set [4] (Sprague-Dawley, rat, plasma, iv, 5 mg/kg, T 1/2β, rats, 5 mg/kg DNR iv) of 25.4 ± 4.54 h. Moreover, the “T 1/2α” value in data set [4] (rats, 5 mg/kg DNR iv) turned out to be 56.4 ± 0 s. For the same compound, in data set [4] (setting [10]), the Kel is given as 0.01 ± 0.00, the α was 0.74 ± 0.00 min⁻¹ and the β was determined as 0.00 ± 0.00 min⁻¹. In addition, the “histopathological changes in cardiac tissue” value in data set [5] (25 mg/kg) is reported as “marked myocardial toxicity”. In data set [5] (low- or high-dose (5 and 25 mg/kg)), the “histopathological changes in spleen” value is “Marked red pulp hemorrhage-associated compensative sinusoidal histocytic proliferation and extramedullary hematopoiesis”. Moreover, the “cTnT level relative to control mice” value in data set [6] (1 day after dosing) is 9.15 times. The “cTnT level relative to control mice” value in data set [6] (3 days (peak)) was 15.8 times. Also, in the data set with K562-CLL1 xenograft, the overall survival was 44 days.
